O=C(Nc1ccc(Oc2ccnc3c2CCN3)c(F)c1)c1c[nH]cc(-c2ccc(F)cc2)c1=O
1 (10.0) n (%): TRAE Anaemia, any grade (600 mg QD (n=10)) | TRAE Anaesthesia oral, any grade (600 mg QD (n=10)) | TRAE Arrhythmia, any grade (600 mg QD (n=10)) | TRAE Asthenia, grade 3-4 (600 mg QD (n=10)) | TRAE Constipation, any grade (600 mg QD (n=10)) | TRAE Cough, any grade (600 mg QD (n=10))
3 (30.0) n (%): TRAE Asthenia, any grade (600 mg QD (n=10))
One: patients with TEAE of pulmonary infection leading to death, deemed unrelated (450 mg QD cohort)
0 n (%): TRAE Hyperhidrosis, grade 3-4 (450 mg QD (n=12)) | TRAE Hyperlipidaemia, any grade (450 mg QD (n=12)) | TRAE Hyperlipidaemia, grade 3-4 (450 mg QD (n=12)) | TRAE Hypertension, any grade (450 mg QD (n=12)) | TRAE Hypertension, grade 3-4 (450 mg QD (n=12)) | TRAE Hypoaesthesia oral, grade 3-4 (450 mg QD (n=12)) | TRAE Hypocalcaemia, any grade (450 mg QD (n=12)) | TRAE Hypocalcaemia, grade 3-4 (450 mg QD (n=12)) | TRAE Hypotension, any grade (450 mg QD (n=12)) | TRAE Hypotension, grade 3-4 (450 mg QD (n=12)) | TRAE Insomnia, any grade (450 mg QD (n=12)) | TRAE Insomnia, grade 3-4 (450 mg QD (n=12)) | TRAE Leukopenia, grade 3-4 (450 mg QD (n=12)) | TRAE Nausea, any grade (450 mg QD (n=12)) | TRAE Nausea, grade 3-4 (450 mg QD (n=12)) | TRAE Neuritis, any grade (450 mg QD (n=12)) | TRAE Neuritis, grade 3-4 (450 mg QD (n=12)) | TRAE Occult blood, grade 3-4 (450 mg QD (n=12)) | TRAE Oedema peripheral, grade 3-4 (450 mg QD (n=12)) | TRAE Onycholysis, grade 3-4 (450 mg QD (n=12)) | TRAE Oropharyngeal pain, any grade (450 mg QD (n=12)) | TRAE Oropharyngeal pain, grade 3-4 (450 mg QD (n=12)) | TRAE Paraesthesia, grade 3-4 (450 mg QD (n=12)) | TRAE Pruritus, grade 3-4 (450 mg QD (n=12)) | TRAE Rash maculo-papular, any grade (450 mg QD (n=12)) | TRAE Rash maculo-papular, grade 3-4 (450 mg QD (n=12)) | TRAE Sinus tachycardia, any grade (450 mg QD (n=12)) | TRAE Sinus tachycardia, grade 3-4 (450 mg QD (n=12)) | TRAE Skin fissures, any grade (450 mg QD (n=12)) | TRAE Skin fissures, grade 3-4 (450 mg QD (n=12)) | TRAE Supraventricular extrasystoles, any grade (450 mg QD (n=12)) | TRAE Supraventricular extrasystoles, grade 3-4 (450 mg QD (n=12)) | TRAE Thrombocytopenia, any grade (450 mg QD (n=12)) | TRAE Thrombocytopenia, grade 3-4 (450 mg QD (n=12)) | TRAE Upper respiratory tract infection, any grade (450 mg QD (n=12)) | TRAE Upper respiratory tract infection, grade 3-4 (450 mg QD (n=12)) | TRAE Urinary retention, any grade (450 mg QD (n=12)) | TRAE Urinary retention, grade 3-4 (450 mg QD (n=12)) | TRAE Urinary tract infection, grade 3-4 (450 mg QD (n=12)) | TRAE Ventricular arrhythmia, grade 3-4 (450 mg QD (n=12)) | TRAE Ventricular extrasystoles, any grade (450 mg QD (n=12)) | TRAE Ventricular extrasystoles, grade 3-4 (450 mg QD (n=12)) | TRAE Vomiting, grade 3-4 (450 mg QD (n=12)) | TRAE Weight loss, any grade (450 mg QD (n=12)) | TRAE Weight loss, grade 3-4 (450 mg QD (n=12)) | TRAE Accessory nerve disorder, any grade (600 mg QD (n=10)) | TRAE Accessory nerve disorder, grade 3-4 (600 mg QD (n=10)) | TRAE Activated partial thromboplastin time prolonged, any grade (600 mg QD (n=10)) | TRAE Activated partial thromboplastin time prolonged, grade 3-4 (600 mg QD (n=10)) | TRAE Anaemia, grade 3-4 (600 mg QD (n=10)) | TRAE Anaesthesia oral, grade 3-4 (600 mg QD (n=10)) | TRAE Arrhythmia, grade 3-4 (600 mg QD (n=10)) | TRAE Arthralgia, any grade (600 mg QD (n=10)) | TRAE Arthralgia, grade 3-4 (600 mg QD (n=10)) | TRAE Blister, any grade (600 mg QD (n=10)) | TRAE Blister, grade 3-4 (600 mg QD (n=10)) | TRAE Chest discomfort, any grade (600 mg QD (n=10)) | TRAE Chest discomfort, grade 3-4 (600 mg QD (n=10)) | TRAE Chronic kidney disease, any grade (600 mg QD (n=10)) | TRAE Chronic kidney disease, grade 3-4 (600 mg QD (n=10)) | TRAE Constipation, grade 3-4 (600 mg QD (n=10)) | TRAE Cough, grade 3-4 (600 mg QD (n=10))
3 (25.0) n (%): TRAE PPE, any grade (450 mg QD (n=12)) | TRAE Proteinuria, any grade (450 mg QD (n=12))
1 (8.3) n (%): TRAE Leukopenia, any grade (450 mg QD (n=12)) | TRAE Occult blood, any grade (450 mg QD (n=12)) | TRAE Oedema peripheral, any grade (450 mg QD (n=12)) | TRAE Onycholysis, any grade (450 mg QD (n=12)) | TRAE PPE, grade 3-4 (450 mg QD (n=12)) | TRAE Paraesthesia, any grade (450 mg QD (n=12)) | TRAE Proteinuria, grade 3-4 (450 mg QD (n=12)) | TRAE Pruritus, any grade (450 mg QD (n=12)) | TRAE Urinary tract infection, any grade (450 mg QD (n=12)) | TRAE Ventricular arrhythmia, any grade (450 mg QD (n=12)) | TRAE Vomiting, any grade (450 mg QD (n=12))
2 (16.7) n (%): TRAE Hypoaesthesia oral, any grade (450 mg QD (n=12))
